From patent US20220251079A1, “BENZO[B][1,8]NAPHTHYRIDINE ACETIC ACID DERIVATIVES AND METHODS OF USE” (STINGTHERA, INC., priority 2019, published 2022) come the findings set out here.

In assay [1] the target is T1, hSTING-R232 (Homo sapiens, UniProt Q86WV6, H232R).
T1 construct: recombinant mouse or human STING protein (aa140-379); 6xHis-SUMO elsewhere) (cleaved yes); made in house
Briefly: STING Differential Scanning Fluorimetry (DSF) assay, human. Format: binding. The note with it: human STING R232-WT, 5 μM protein. On the procedure: A STING DSF assay was performed to determine protein thermostability shift in response to small molecule ligand binding. A STING thermostability shift assay based on differential scanning fluorimetry was used to measure (1) the net shift in melting temperature (ΔTm)between the apo and ligand-bound states of the STING protein and (2) the concentration of the thermal denaturation transition (FC50) as a surrogate measure of binding affinity (Kd). Briefly, recombinant mouse or human STING protein (aa140-379) comprising the C-terminal binding domain (R232-WT) were purified by affinity chromatography and further processed to remove the purification tag, followed by gel filtration to achieve purity >95%. Protein in assay buffer was transferred to a 384 well plate and incubated with the hydrophobic fluorescent dye SYBR Orange. A temperature ramp was applied to the plate and the resulting dye fluorescence was plotted as a function of temperature. The first derivative of this function (dF/dT) was then used to extrapolate the melting temperature of the protein at various concentrations of compound and determine the thermal denaturation profile of a protein/compound complex.
2. 5 μM purified Target STING Protein
4. Buffer: 100 mM NaCl, 30 mM HEPES, pH 7.5
5. Thermal Ramp: 0.5° C./min
7. 11 point, 2 fold dilution, duplicate, 300 μM high concentrations
In general terms: Differential scanning fluorimetry follows unfolding on heating by fluorescence.

Assay [2] deals with T2, human STING protein (140-379) (Homo sapiens, UniProt Q86WV6, H232R).
T2 construct: 6XHIS-SUMO-hSTING (140-379); made in house; host or cells: BL-21(DE3) E. coli, pET vector
T2 sequence (Q86WV6 140-379 H232R): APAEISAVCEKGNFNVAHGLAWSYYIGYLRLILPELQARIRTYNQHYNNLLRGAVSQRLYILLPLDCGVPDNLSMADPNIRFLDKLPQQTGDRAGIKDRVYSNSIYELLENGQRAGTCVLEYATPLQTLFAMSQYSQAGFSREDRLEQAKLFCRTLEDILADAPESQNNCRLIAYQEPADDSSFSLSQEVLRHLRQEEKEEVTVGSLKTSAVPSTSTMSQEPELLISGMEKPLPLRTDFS
Kind of assay: Radiometric filtration binding competition assay (WT_FBA_HIS-SUMO-hSWAT). As to conditions: read-out: WT-hSWAT IC50. The protocol: A radiometric filtration binding competition assay was performed to quantify the binding affinity of compounds of the present application for the human or mouse STING protein, or associated HAQ human isoform. The competition format filtration binding assay detects the ability of small molecule compounds from binding to and inhibiting the subsequent binding of a tritiated [H3] […] The resulting dose response was fit by non-linear regression to determine an IC50 value, from which a Ki value for each compound was extrapolated.
Briefly, the recombinant C-terminal ligand binding domain of the human STING protein (140-379) or mouse STING protein (139-328) [0.5 μM] was incubated in the presence of a compound of the present application (8 point, 2 fold dilution starting at 300 μM) for 30 min or under control conditions. […] The resulting complexes were then filtered, dried, and scintillation fluid was added and the remaining radio signal was measured to determine the degree of compound ligand inhibition. This assay format was optimized for both the WT and HAQ isoforms of the human protein and the mouse orthologue protein.
Parameters optimized: • a. Form of protein: 6×HIS-SUMO tag or untagged • b. Concentration of target protein: Minimum concentration that achieved >80 max signal • c. Assay DMSO concentration: 10%-0.1% • d. Assay Buffer: Base (Tris or phosphate), Salt concentration, +/−Tween (0.1-2%) • e. […] Probe Concentration: Minimum concentration that achieved max assay window • g. Assay Format: Scintillation Proximity Bead or Filtration Binding Plate • h. Assay Plate: 384 vs 96 well format • i. Assay incubation times for successive incubation steps
WT-hSWAT: WT_FBA_HIS-SUMO-hSWAT IC50 (μM) (“WT”=Wild-type); and WT-mSWAT: MOUSE_FBA_HIS-SUMO-mSWAT C50 (μM) which is the mouse isoform of STING protein.

For assay [3], the target named is T3, STING protein (Homo sapiens, UniProt Q86WV6, H232R).
T3 construct: host or cells: THP-1 dual reporter cells, TMEM173 modified from HAQ to R232 (THP1-dual-KI R232)
T3 sequence (Q86WV6 whole entry H232R): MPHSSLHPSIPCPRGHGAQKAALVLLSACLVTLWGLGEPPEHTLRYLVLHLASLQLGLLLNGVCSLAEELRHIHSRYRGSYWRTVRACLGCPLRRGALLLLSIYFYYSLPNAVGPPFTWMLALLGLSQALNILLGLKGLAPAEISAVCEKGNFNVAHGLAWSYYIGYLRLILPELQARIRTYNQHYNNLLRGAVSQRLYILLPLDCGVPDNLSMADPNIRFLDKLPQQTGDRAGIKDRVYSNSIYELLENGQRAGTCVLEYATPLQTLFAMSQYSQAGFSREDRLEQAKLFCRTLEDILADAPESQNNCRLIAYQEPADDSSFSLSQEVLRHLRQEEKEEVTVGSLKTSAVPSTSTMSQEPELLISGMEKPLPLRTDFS
Briefly: Cell based reporter assay of IRF activation (THP1-dual-KI R232, IRF luciferase). The note with it: THP-1; read-out: THP1-dual-KI R232_IRF(Luciferase)_Activity Maximum measured (%). From the text:
Cell reporter assays were developed to measure the ability of compounds of the application to activate the STING protein and activate both IRF/IFN and the NFkB signaling pathways in the myeloid derived cell line THP-1, which is commercially available from several suppliers. Briefly, THP-1 monocytes were transfected and selected for stable integration of 2 reporter constructs. Clones incorporating stably integrated vectors were further selected by antibiotic resistance to blastocidin and zeocin. The reporter constructs included: (1) firefly luciferase reporter gene under the control of an ISG54 promoter fused to five interferon (IFN)-stimulated response elements to measure IRF transcription factor binding activity and (2) secreted embryonic alkaline phosphatase reporter gene under transcription control of an IFN-beta minimal promoter fused to 5 copies of the NFkB consensus transcriptional response element and 3 copies of the c-Rel binding site.
The resulting THP-1 cell line was further modified to incorporate 3 amino acid point mutations (H71R A230G Q293R). This modification of the native TMEM173 gene in THP-1 cells (HAQ) was designed to produce a cell reporter that expressed the most common allelic variant in the human population (THP-1 R232, available from InvivoGen). Alternatively, the TMEM173 gene was knocked out to provide a congenic control to counter-screen for compound activation that was independent of the STING protein (THP-1 STING KO).
Once cell lines were established, reporter assay protocols were developed and optimized to screen small molecule compounds for agonist activity. Assay optimization for efficacy and Z′ value included titration of the following parameters:
1. No pre-activation with PMA
2. […]cells/well in 96 well plate format
7. Cell Titer Glo reagent (Promega) following supermatant removal
9. 8 point, 2 fold, duplicate starting at 150 μM PP28T
In general terms: Reporter assays use an easily measured gene product as a stand-in for the process of interest.

Bounds are passed on as bounds.

T1 sequence (Q86WV6 140-379 H232R): as the sequence (Q86WV6 140-379 H232R) above

As usually defined, the IC50 is the point on the concentration scale where inhibition reaches its midpoint. For `CO[C@H]1C[C@H](N(C)c2ccc3c(=O)c4ccc(Cl)c(SC)c4n(CC(=O)O)c3n2)C1` (single isomer, unassigned) [Compound 70, 2-(8-chloro-2-(((1r,3r)-3-methoxycyclobutyl)(methyl)amino)-9-(methylthio)-5-oxobenzo[b][1,8]naphthyridin-10(5H)-yl)acetic acid], in assay [1], the “WT_DSF_hSWAT Tm Shift (° C.)” value is given as “D (“D” > 7° C.)”. In assay [2], the IC50 was below 20 µM. Besides, the Emax in assay [3] is above 50%.

On to `CCOc1c(Cl)ccc2c(=O)c3ccc(C(C)=O)nc3n(CC(=O)O)c12` [Compound 31, sodium 2-(2-acetyl-8-chloro-9-ethoxy-5-oxobenzo[b][1,8]naphthyridin-10(5H)-yl)acetate], for which the “WT_DSF_hSWAT Tm Shift (° C.)” value in assay [1] is “C (“C” = 2-7° C.)”. The IC50 in assay [2] lay within 100 to 300 µM. Also, the Emax in assay [3] was above 50%.

In the case of `CN(C)c1c(Cl)ccc2c(=O)c3ccc(NCC4CC(F)(F)C4)nc3n(CC(=O)O)c12` [Compound 53, Sodium 2-(8-chloro-2-(((3,3-difluorocyclobutyl)methyl)amino)-9-(dimethylamino)-5-oxobenzo[b][1,8]naphthyridin-10(5H)-yl)acetate], the “WT_DSF_hSWAT Tm Shift (° C.)” value in assay [1] is recorded as “D (“D” > 7° C.)”. For the same compound, in assay [2], the 50% inhibitory concentration (IC50) is below 20 µM. Also, in assay [3], the Emax is above 50%.

Take `CSc1c(Cl)ccc2c(=O)c3ccc(N(C)CCS(=O)(=O)C(C)C)nc3n(CC(=O)O)c12` [Compound 35, sodium 2-(8-chloro-2-{methyl[2-(propane-2-sulfonyl)ethyl]amino}-9-(methylsulfanyl)-5-oxobenzo[b]1,8-naphthyridin-10-yl)acetate]: the “WT_DSF_hSWAT Tm Shift (° C.)” value in assay [1] is listed as “D (“D” > 7° C.)”. In assay [2], the IC50 lay within 20 to 100 µM. In addition, the Emax in assay [3] was above 50%.

As for `CSc1c(Cl)ccc2c(=O)c3ccc(C(C)(C)C#N)nc3n(CC(=O)O)c12` [Compound 24, sodium 2-(8-chloro-2-(2-cyanopropan-2-yl)-9-(methylthio)-5-oxobenzo[b][1,8]naphthyridin-10(5H)-yl)acetate], in assay [1], the “WT_DSF_hSWAT Tm Shift (° C.)” value is given as “D (“D” > 7° C.)”. Moreover, the IC50 in assay [2] was 20 to 100 µM. In assay [3], the Emax was above 50%.

Turning to `Cc1ccc2c(=O)c3c(O)cc(Cl)c(N(C)C)c3n(CC(=O)O)c2n1` [Compound 9], the “WT_DSF_hSWAT Tm Shift (° C.)” value in assay [1] is reported as “C (“C” = 2-7° C.)”. Moreover, in assay [2], the IC50 was 100 to 300 µM. For the same compound, the Emax in assay [3] is above 50%.

Consider `COCCN(CC(F)(F)F)c1ccc2c(=O)c3ccc(Cl)c(SC)c3n(CC(=O)O)c2n1` [Compound 50, sodium 2-(8-chloro-2-((2-methoxyethyl)(2,2,2-trifluoroethyl)amino)-9-(methylthio)-5-oxobenzo[b][1,8]naphthyridin-10(5H)-yl)acetate], for which, in assay [1], the “WT_DSF_hSWAT Tm Shift (° C.)” value is on record as “D (“D” > 7° C.)”. In addition, in assay [2], the IC50 was 20 to 100 µM. Also, in assay [3], the Emax was above 50%.

With `CCOc1nc2c(cc1Cl)c(=O)c1ccc(Cl)c(N(C)C)c1n2CC(=O)O` [Compound 18, 2-(3,8-dichloro-9-(dimethylamino)-2-ethoxy-5-oxobenzo[b][1,8]naphthyridin-10(5H)-yl) acetic acid], the “WT_DSF_hSWAT Tm Shift (° C.)” value in assay [1] is “C (“C” = 2-7° C.)”. For the same compound, the IC50 in assay [2] is below 20 µM. The Emax in assay [3] was above 50%.

In the case of `COc1ccc2c(=O)c3ccc(Cl)c(N(C)C)c3n(CC(=O)O)c2n1` [Compound 21, 2-(8-chloro-9-(dimethylamino)-2-methoxy-5-oxobenzo[b][1,8]naphthyridin-10(5H)-yl) acetic acid], in assay [1], the “WT_DSF_hSWAT Tm Shift (° C.)” value is listed as “C (“C” = 2-7° C.)”. Moreover, in assay [2], the IC50 lay within 20 to 100 µM. In addition, the Emax in assay [3] was above 50%.

Turning to `CCN(CCOC)c1nc2c(cc1Cl)c(=O)c1ccc(Cl)c(SC)c1n2CC(=O)O` [Compound 59, sodium 2-(3,8-dichloro-2-(ethyl(2-methoxyethyl)amino)-9-(methylthio)-5-oxobenzo[b][1,8]naphthyridin-10(5H)-yl)acetate], the “WT_DSF_hSWAT Tm Shift (° C.)” value in assay [1] is “D (“D” > 7° C.)”. Besides, the IC50 in assay [2] is 20 to 100 µM. Also, in assay [3], the Emax was above 50%.

In the case of `CO[C@H]1C[C@@H](N(C)c2ccc3c(=O)c4ccc(C)c(SC)c4n(CC(=O)O)c3n2)C1` [Compound 69, 2-(2-(((1s,3s)-3-methoxycyclobutyl)(methyl)amino)-8-methyl-9-(methylthio)-5-oxobenzo[b][1,8]naphthyridin-10(5H)-yl)acetic acid], the “WT_DSF_hSWAT Tm Shift (° C.)” value in assay [1] was “D (“D” > 7° C.)”. Besides, the half-inhibitory concentration (IC50) in assay [2] was below 20 µM. Also, the Emax in assay [3] was above 50%.

`COC1CC(CN(CC2CC2)c2ccc3c(=O)c4ccc(Cl)c(SC)c4n(CC(=O)O)c3n2)C1` (stereo not drawn) [Compound 40, sodium 2-(8-chloro-2-((cyclopropylmethyl)((3-methoxycyclobutyl)methyl)amino)-9-(methylthio)-5-oxobenzo[b][1,8]naphthyridin-10(5H)-yl)acetate]: in assay [1], the “WT_DSF_hSWAT Tm Shift (° C.)” value was “D (“D” > 7° C.)”. In assay [2], the IC50 fell in the range of 20 to 100 µM. Moreover, in assay [3], the Emax was above 50%.

Regarding `CSc1c(Cl)ccc2c(=O)c3ccc(N(C)CC4CC(F)(F)C4)nc3n(CC(=O)O)c12` [Compound 36, Sodium 2-(8-chloro-2-(((3,3-difluorocyclobutyl)methyl)(methyl)amino)-9-(methylthio)-5-oxobenzo[b][1,8]naphthyridin-10(5H)-yl)acetate], the “WT_DSF_hSWAT Tm Shift (° C.)” value in assay [1] is recorded as “D (“D” > 7° C.)”. For the same compound, in assay [2], the IC50 fell in the range of 20 to 100 µM. Moreover, the Emax in assay [3] was above 50%.

`Cc1ccc2c(=O)c3ccc(Cl)c(N(C)C)c3n(CC(=O)NS(C)(=O)=O)c2n1` [Compound 10]: the “WT_DSF_hSWAT Tm Shift (° C.)” value in assay [1] is given as “C (“C” = 2-7° C.)”. The IC50 in assay [2] is above 300 µM. Further, the Emax in assay [3] is above 50%.

As to `CSc1ccc2c(=O)c3ccc(C(C)(C)C)nc3n(CC(=O)O)c2c1SC` [Compound 13], the “WT_DSF_hSWAT Tm Shift (° C.)” value in assay [1] is given as “B (“B” = 0-2° C.)”. Further, in assay [2], the IC50 was above 300 µM. For the same compound, the Emax in assay [3] was above 50%.

As for `CO[C@H]1C[C@@H](N(C)c2nc3c(cc2Cl)c(=O)c2ccc(Cl)c(SC)c2n3CC(=O)O)C1` [Compound 77, 2-(3,8-dichloro-2-(((1s,3s)-3-methoxycyclobutyl)(methyl)amino)-9-(methylthio)-5-oxobenzo[b][1,8]naphthyridin-10(5H)-yl)acetic acid], the “WT_DSF_hSWAT Tm Shift (° C.)” value in assay [1] is “D (“D” > 7° C.)”. In assay [2], the IC50 was below 20 µM. For the same compound, the Emax in assay [3] was above 50%.

`CC(C)(C)c1ccc2c(=O)c3ccc(Cl)c(F)c3n(CC(=O)O)c2n1` [Compound 14]: the “WT_DSF_hSWAT Tm Shift (° C.)” value in assay [1] is on record as “B (“B” = 0-2° C.)”. Also, the IC50 in assay [2] is above 300 µM. Besides, in assay [3], the Emax is above 50%.
